Measured values taken from the CheMixHub viscosity set.

Assay: xn = mol fraction of the nth substance listed

CCCCCOC(=O)CCC + CC(=O)O
viscosity [mPa·s], 101 kPa
Conditions | 298.15 K | 313.15 K
x1 = 0.1013 | 1.06 | 0.853
x1 = 0.1499 | 1.04 | 0.836
x1 = 0.2007 | 1.02 | 0.824
x1 = 0.2515 | 1.03 | 0.827
x1 = 0.3014 | 1.03 | 0.833
x1 = 0.4 | 1.04 | 0.833
x1 = 0.4999 | 1.05 | 0.846
x1 = 0.6018 | 1.07 | 0.85
x1 = 0.6919 | 1.08 | 0.859
x1 = 0.804 | 1.08 | 0.86
x1 = 0.8906 | 1.08 | 0.861
x1 = 0.9459 | 1.07 | 0.859

CCCCCC + CC(C)O
viscosity [mPa·s], 101 kPa
Conditions | 298.15 K | 308.15 K
x2 = 0.0486 | 0.318 | 0.26
x2 = 0.1046 | 0.326 | 0.268
x2 = 0.1633 | 0.334 | 0.276
x2 = 0.272 | 0.364 | 0.31
x2 = 0.3138 | 0.377 | 0.33
x2 = 0.3636 | 0.399 | 0.36
x2 = 0.4036 | 0.42 | 0.382
x2 = 0.5026 | 0.496 | 0.451
x2 = 0.563 | 0.557 | 0.508
x2 = 0.6074 | 0.613 | 0.561
x2 = 0.6996 | 0.763 | 0.694
x2 = 0.8182 | 1.06 | 0.934
x2 = 0.9038 | 1.4 | 1.237
x2 = 0.9566 | 1.723 | 1.379

O=C1OCCO1 + CNC(C)=O
313.15 K, 101.33 kPa
Conditions | viscosity [mPa·s]
x1 = 0.0747 | 2.732
x1 = 0.1786 | 2.456
x1 = 0.2841 | 2.246
x1 = 0.3817 | 2.099
x1 = 0.4799 | 1.984
x1 = 0.5724 | 1.903
x1 = 0.6726 | 1.845
x1 = 0.7707 | 1.814
x1 = 0.869 | 1.824
x1 = 0.9684 | 1.893

CCCCCOC(C)=O + Cc1ccc(O)cc1
Conditions | viscosity [mPa·s]
298.15 K, 101 kPa, x2 = 0.5 | 1.169

C=CC(=O)OC + CCCCCCCCCCCC
viscosity [mPa·s], 100 kPa
Conditions | x1 = 0.0959 | x1 = 0.1996 | x1 = 0.3063 | x1 = 0.4005 | x1 = 0.5043 | x1 = 0.603 | x1 = 0.7008 | x1 = 0.8015 | x1 = 0.8993
303.15 K | 1.129 | 1.019 | 0.916 | 0.831 | 0.745 | 0.67 | 0.601 | 0.54 | 0.486
308.15 K | 1.017 | 0.918 | 0.825 | 0.751 | 0.674 | 0.611 | 0.554 | 0.502 | 0.458
313.15 K | 0.963 | 0.867 | 0.779 | 0.709 | 0.638 | 0.58 | 0.528 | 0.478 | 0.438

O=C1CCCN1C1CCCCC1 + O
298.15 K, 100 kPa
Conditions | viscosity [mPa·s]
x1 = 0.01 | 1.219
x1 = 0.0196 | 1.621
x1 = 0.0303 | 2.139
x1 = 0.0392 | 2.582
x1 = 0.0484 | 3.059
x1 = 0.0565 | 3.503
x1 = 0.0683 | 4.138
x1 = 0.079 | 4.749
x1 = 0.0878 | 5.762
x1 = 0.0982 | 5.739
x1 = 0.2023 | 10.42
x1 = 0.2989 | 12.86
x1 = 0.3988 | 13.62
x1 = 0.498 | 13.33
x1 = 0.5984 | 12.65
x1 = 0.7063 | 11.87
x1 = 0.7985 | 11.27
x1 = 0.8996 | 10.76
x1 = 0.9093 | 10.71
x1 = 0.9161 | 10.68
x1 = 0.928 | 10.65
x1 = 0.9365 | 10.61
x1 = 0.9461 | 10.58
x1 = 0.9574 | 10.52
x1 = 0.9675 | 10.5
x1 = 0.9784 | 10.46
x2 = 0.0112 | 10.41

C=CC(=O)OCCCC + c1ccccc1
viscosity [mPa·s], 101 kPa
Conditions | x2 = 0.1282 | x2 = 0.2182 | x2 = 0.2926 | x2 = 0.4108 | x2 = 0.4964 | x2 = 0.5923 | x2 = 0.708 | x2 = 0.7944 | x2 = 0.9032
298.15 K | 0.799 | 0.773 | 0.749 | 0.719 | 0.699 | 0.679 | 0.658 | 0.641 | 0.62
303.15 K | 0.738 | 0.709 | 0.686 | 0.656 | 0.636 | 0.618 | 0.601 | 0.59 | 0.574
308.15 K | 0.683 | 0.649 | 0.625 | 0.595 | 0.576 | 0.564 | 0.554 | 0.545 | 0.531
313.15 K | 0.62 | 0.585 | 0.565 | 0.538 | 0.524 | 0.51 | 0.501 | 0.496 | 0.485
